ChEMBL document CHEMBL4043194, “Nrf2 activators from Glycyrrhiza inflata and their hepatoprotective activities against CCl4-induced liver injury in mice” (Bioorg Med Chem, 2017)

Each compound was assayed on HepG2 (assay: Cytotoxicity in human HepG2 cells expressing Nrf2/ARE-driven luciferase at 20 to 40 uM incubated for 6 hrs). Settings: hepg2, 6 h.
Type: cell-based

| SMILES | Activity |
| --- | --- |
| C=CC(C)(C)c1cc(/C=C/C(=O)c2ccc(O)cc2)c(OC)c(O)c1O | Toxic |
| CC(C)=CCc1c(O)ccc(-c2cc3ccc(O)cc3o2)c1O [2'-O-DEMETHYLBIDWILLOL B] | Toxic |
| COc1c(/C=C/C(=O)c2ccc(O)c(CC=C(C)C)c2)ccc(O)c1O [LICOCHALCONE D] | Toxic |

Each compound was assayed on HepG2 (assay: Cytotoxicity in human HepG2 cells expressing Nrf2/ARE-driven luciferase at 10 to 40 uM incubated for 6 hrs). Settings: hepg2, 6 h.
Type: cell-based

| SMILES | Activity |
| --- | --- |
| COc1c(/C=C/C(=O)c2ccc(O)cc2)cc(CC=C(C)C)c(O)c1O | Toxic |
| C=CC(C)(C)c1cc(/C=C/C(=O)c2ccc(O)c(O)c2)c(OC)cc1O | Toxic |
| C=C(C)[C@H](C)c1cc(/C=C/C(=O)c2ccc(O)cc2)c(OC)cc1O [LICOCHALCONE E] | Toxic |

Each compound was assayed against T1, Nuclear factor erythroid 2-related factor 2 (Homo sapiens) (UniProt Q16236) (assay: Activation of Nrf2 (unknown origin) expressed in human HepG2 cells at 2.5 to 20 uM incubated for 6 hrs by ARE-driven luciferase reporter gene assay). Settings: not given.
T1 sequence (whole entry): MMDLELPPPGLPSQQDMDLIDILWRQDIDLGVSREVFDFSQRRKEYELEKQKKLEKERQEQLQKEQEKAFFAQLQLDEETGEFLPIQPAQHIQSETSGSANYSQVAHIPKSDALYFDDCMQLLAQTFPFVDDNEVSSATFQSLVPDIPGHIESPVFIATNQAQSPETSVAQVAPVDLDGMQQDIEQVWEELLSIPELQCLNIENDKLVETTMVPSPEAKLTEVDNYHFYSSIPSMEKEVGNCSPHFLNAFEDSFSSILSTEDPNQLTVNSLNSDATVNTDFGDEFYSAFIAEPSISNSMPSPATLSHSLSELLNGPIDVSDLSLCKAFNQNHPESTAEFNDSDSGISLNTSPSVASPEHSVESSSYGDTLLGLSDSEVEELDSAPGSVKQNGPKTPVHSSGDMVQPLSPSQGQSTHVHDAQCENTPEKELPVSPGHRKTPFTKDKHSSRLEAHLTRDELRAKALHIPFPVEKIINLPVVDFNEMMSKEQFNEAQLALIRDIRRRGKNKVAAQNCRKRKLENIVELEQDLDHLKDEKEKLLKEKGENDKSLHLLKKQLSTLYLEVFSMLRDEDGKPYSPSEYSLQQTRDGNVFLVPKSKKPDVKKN
Type: cell-based

| SMILES | Activity |
| --- | --- |
| C=CC(C)(C)c1cc(/C=C/C(=O)c2ccc(O)cc2)c(OC)c(O)c1O | Dose-dependent effect |
| CC(C)=CCc1c(O)ccc(-c2cc3ccc(O)cc3o2)c1O [2'-O-DEMETHYLBIDWILLOL B] | Dose-dependent effect |
| COc1c(/C=C/C(=O)c2ccc(O)c(CC=C(C)C)c2)ccc(O)c1O [LICOCHALCONE D] | Dose-dependent effect |

Each compound was assayed against T1, Nuclear factor erythroid 2-related factor 2 (Homo sapiens) (assay: Activation of Nrf2 (unknown origin) expressed in human HepG2 cells at 2.5 to 10 uM incubated for 6 hrs by ARE-driven luciferase reporter gene assay). Settings: not given.
Type: cell-based

| SMILES | Activity |
| --- | --- |
| COc1c(/C=C/C(=O)c2ccc(O)cc2)cc(CC=C(C)C)c(O)c1O | Dose-dependent effect |
| C=CC(C)(C)c1cc(/C=C/C(=O)c2ccc(O)c(O)c2)c(OC)cc1O | Dose-dependent effect |
| C=C(C)[C@H](C)c1cc(/C=C/C(=O)c2ccc(O)cc2)c(OC)cc1O [LICOCHALCONE E] | Dose-dependent effect |

What follows are compounds tested against T1, Nuclear factor erythroid 2-related factor 2 (Homo sapiens) (assay: Activation of Nrf2 (unknown origin) expressed in human HepG2 cells at 10 uM incubated for 6 hrs by ARE-driven luciferase reporter gene assay relative to untreated control). Settings: not given.
Type: cell-based

| SMILES | fold change (FC) |
| --- | --- |
| CC(C)=CCc1cc(-c2coc3cc(O)cc(O)c3c2=O)cc(O)c1O | 1.91 |
| COc1c(/C=C/C(=O)c2ccc(O)c(O)c2)ccc(O)c1CC=C(C)C | 2.07 |
| O=c1c(-c2ccc(O)cc2)coc2cc(O)cc(O)c12 | 1.2 |
| C=CC(C)(C)c1cc(/C=C/C(=O)c2ccc(O)cc2)c(OC)c(O)c1O | 3.09 |
| CC(C)=CCc1cc(-c2coc3c(CC=C(C)C)c(O)cc(O)c3c2=O)cc(O)c1O | 1.2 |
| O=c1cc(-c2ccc(O)cc2)oc2cc(O)ccc12 | 1.23 |
| COc1c(/C=C/C(=O)c2ccc(O)cc2)ccc(O)c1CC=C(C)C | 1.42 |
| O=C1C[C@@H](c2ccc(O)cc2)Oc2cc(O)ccc21 | 1.97 |
| CC(C)=CCc1cc(-c2cc(=O)c3cc4c(cc3o2)OC(C)(C)C=C4)ccc1O | 1.73 |
| CC(C)=CCc1c(O)ccc2c1oc1c3ccc(O)cc3oc(=O)c21 | 1.81 |
| CC(C)=CCc1c(O)cc2occ(-c3ccc4c(c3)C=CC(C)(C)O4)c(=O)c2c1O | 1.34 |
| CC(C)=CCc1cc([C@@H]2CC(=O)c3cc(CC=C(C)C)c(O)cc3O2)ccc1O | 1.59 |
| CC(C)=CCc1cc(/C=C/C(=O)c2ccc(O)c(CC=C(C)C)c2O)ccc1O | 1.22 |
| O=C1c2c(O)cc(O)cc2OCC1c1ccc(O)cc1 (centres undefined) | 1.72 |
| COc1ccc(C2COc3c(cc(CC=C(C)C)c(O)c3O)C2=O)cc1 (centres undefined) | 1.06 |
| COc1ccc2c(c1)OC[C@H]1c3ccc(O)cc3O[C@@H]21 | 1.23 |
| CC1(C)C=Cc2cc(-c3coc4cc(O)cc(O)c4c3=O)cc(O)c2O1 | 1.13 |
| CC1(C)C=Cc2c(O)ccc(-c3coc4cc(O)cc(O)c4c3=O)c2O1 | 1.7 |
| CC(C)=CCc1cc(/C=C/C(=O)c2ccc(O)cc2O)ccc1O | 1.87 |
| CC1(C)C=Cc2c(ccc(-c3cc4ccc(O)cc4o3)c2O)O1 | 1.08 |
| CC(C)=CCc1cc2c(=O)cc(-c3ccc4c(c3)C=CC(C)(C)O4)oc2cc1O | 1.03 |
| CC(C)=CCc1c(O)cc2occ(-c3cc(O)c4c(c3)C=CC(C)(C)O4)c(=O)c2c1O | 1.51 |
| CC1(C)C=Cc2cc(-c3coc4cc(O)cc(O)c4c3=O)ccc2O1 | 0.76 |
| CC1(C)[C@@H](O)CC[C@]2(C)[C@H]3CC=C4[C@@H]5C[C@@](C)(C(=O)O)CC[C@]5(C)CC[C@@]4(C)[C@]3(C)CC[C@@H]12 | 1.43 |

| SMILES | fold change (FC) |
| --- | --- |
| CC(C)=CCc1cc(C2CC(=O)c3ccc(O)c(CC=C(C)C)c3O2)ccc1O (centres undefined) | 1.21 |
| O=C1C[C@@H](c2cc(O)cc(O)c2)Oc2cc(O)ccc21 | 1.54 |
| O=C(/C=C/c1ccc(O)c(O)c1)c1ccc(O)c(O)c1 | 1.85 |
| COc1cc(-c2coc3cc(O)ccc3c2=O)ccc1O | 1.12 |
| CC(C)=CCc1c(O)cc2occ(-c3ccc(O)cc3)c(=O)c2c1O | 1.49 |
| COc1c(/C=C/C(=O)c2ccc(O)cc2)cc(CC=C(C)C)c(O)c1O | 3.39 |
| CC(C)=CCc1c(O)ccc(-c2coc3cc(O)cc(O)c3c2=O)c1O | 2.49 |
| CC1(CO)C=Cc2c(ccc(-c3coc4cc(O)ccc4c3=O)c2O)O1 (centres undefined) | 2.76 |
| CC1(C)C=Cc2c(ccc3c2OC[C@@H](c2ccc(O)cc2O)C3)O1 | 2.58 |
| CC(C)=CCc1c(O)cc2occ(-c3ccc4c(c3O)C=CC(C)(C)O4)c(=O)c2c1O | 1.37 |
| CC(C)=CCc1c(O)ccc2c1O[C@H](c1ccc3c(c1)C=CC(C)(C)O3)CC2=O | 1.4 |
| CC(C)=CCc1c(O)c(CC=C(C)C)c2occ(-c3ccc(O)cc3)c(=O)c2c1O | 1.21 |
| CC(C)=CCc1c(O)ccc(-c2coc3cc(O)c(CC=C(C)C)c(O)c3c2=O)c1O | 1.05 |
| O=C1c2ccc(O)cc2OCC1c1ccc(O)c(O)c1 (centres undefined) | 2.12 |
| CC(C)=CCc1cc([C@@H]2CC(=O)c3c(O)cc(O)c(CC=C(C)C)c3O2)ccc1O | 1.41 |
| CC1(C)C=Cc2c(ccc3c(=O)c(-c4ccc(O)cc4O)coc23)O1 | 1.76 |
| CC1(C)C=Cc2cc(/C=C/C(=O)c3ccc(O)cc3O)ccc2O1 | 2.37 |
| CC(C)=CCc1cc([C@@H]2CC(=O)c3ccc(O)cc3O2)cc2c1OC(C)(C)C=C2 | 1.84 |
| CC(C)=CCc1c(O)ccc([C@H]2COc3cc(O)c(CC=C(C)C)c(O)c3C2=O)c1O | 1.98 |
| CC(C)=CCc1cc(-c2cc(=O)c3c(O)c(CC=C(C)C)c(O)cc3o2)ccc1O | 2.98 |
| CC1(C)C=Cc2c(ccc(-c3coc4cc(O)ccc4c3=O)c2O)O1 | 1.4 |
| CC(C)=CCc1c(O)ccc(-c2cc3ccc(O)cc3o2)c1O [2'-O-DEMETHYLBIDWILLOL B] | 4.34 |
| CC(C)=CCc1c(O)c(CC=C(C)C)c2oc(-c3ccc(O)cc3)cc(=O)c2c1O | 1.46 |
| C=CC(C)(C)c1cc(/C=C/C(=O)c2ccc(O)c(O)c2)c(OC)cc1O | 5.98 |

| SMILES | fold change (FC) |
| --- | --- |
| CC1(C)C=Cc2cc(-c3coc4cc(O)ccc4c3=O)c(O)cc2O1 | 2.3 |
| COC(C)(C)c1cc2cc3c(=O)cc(-c4ccc(O)c(CC=C(C)C)c4)oc3cc2o1 | 1.54 |
| O=C(/C=C/c1ccc(O)cc1)c1ccc(O)cc1O | 4.67 |
| CC1(C)C(=O)CC[C@]2(C)[C@H]3C(=O)C=C4[C@@H]5C[C@@](C)(C(=O)O)CC[C@]5(C)CC[C@@]4(C)[C@]3(C)[C@@H](O)C[C@@H]12 | 1.18 |
| CC(C)=CCc1cc([C@@H]2CC(=O)c3ccc(O)cc3O2)ccc1O | 2.2 |
| CC(C)=CCc1c(O)ccc(-c2coc3c(CC=C(C)C)c(O)cc(O)c3c2=O)c1O | 1.98 |
| CC1(C)C=Cc2c(ccc(-c3coc4cc(O)cc(O)c4c3=O)c2O)O1 | 1.47 |
| COc1cc(O)c(-c2coc3cc(O)ccc3c2=O)c(OC)c1CC=C(C)C | 1.87 |
| CC(C)=CCc1c(O)cc(O)c2c(=O)c(-c3ccc4c(c3O)C=CC(C)(C)O4)coc12 | 1.56 |
| CC(C)=CCc1c(O)ccc(-c2coc3cc(O)ccc3c2=O)c1O | 2.15 |
| COc1cc2occ(-c3ccc(O)cc3O)c(=O)c2c(O)c1CC=C(C)C | 2.36 |
| COc1ccc(-c2coc3cc(O)ccc3c2=O)c(O)c1 | 2.28 |
| COc1c(/C=C/C(=O)c2ccc(O)c(CC=C(C)C)c2)ccc(O)c1O [LICOCHALCONE D] | 4.53 |
| COc1ccc(-c2coc3cc(O)ccc3c2=O)cc1 | 2.65 |
| COc1ccc(-c2coc3c(O)c(O)c(CC=C(C)C)cc3c2=O)c(O)c1 | 1.42 |
| CC(C)=CCc1c(O)ccc(C(=O)/C=C/c2ccc(O)cc2)c1O | 1.91 |
| CC(C)=CCc1c(O)cc(O)c2c(=O)c(-c3ccc(O)cc3O)coc12 | 1.78 |
| CC(C)=CCc1c(O)cc2c(c1O)C(=O)[C@H](c1ccc3c(c1O)C=CC(C)(C)O3)CO2 | 2.33 |
| CC(C)=CCc1c(O)ccc(C(=O)/C=C/c2ccc(O)c(O)c2)c1O | 1.56 |
| CC1(C)C=Cc2c(O)ccc(C3COc4cc(O)cc(O)c4C3=O)c2O1 (centres undefined) | 1.42 |
| CC(C)=CCc1c(O)cc(O)c2c1OC[C@@H](c1ccc3c(c1O)C=CC(C)(C)O3)C2=O | 1.88 |
| CC(C)=CCc1cc2c(=O)cc(-c3ccc(O)cc3)oc2cc1O | 1.05 |
| CC1(C)C=Cc2c(cc3occ(-c4ccc(O)cc4)c(=O)c3c2O)O1 | 2.17 |
| C=C(C)[C@H](C)c1cc(/C=C/C(=O)c2ccc(O)cc2)c(OC)cc1O [LICOCHALCONE E] | 5.94 |
